T1: Rat cKIT D1-5 (residues 25-526, C-terminal mFc) (rat)
T1 construct: The entry includes the linker and mouse Fc tag; also called rat cKIT-mFc
T1 chain: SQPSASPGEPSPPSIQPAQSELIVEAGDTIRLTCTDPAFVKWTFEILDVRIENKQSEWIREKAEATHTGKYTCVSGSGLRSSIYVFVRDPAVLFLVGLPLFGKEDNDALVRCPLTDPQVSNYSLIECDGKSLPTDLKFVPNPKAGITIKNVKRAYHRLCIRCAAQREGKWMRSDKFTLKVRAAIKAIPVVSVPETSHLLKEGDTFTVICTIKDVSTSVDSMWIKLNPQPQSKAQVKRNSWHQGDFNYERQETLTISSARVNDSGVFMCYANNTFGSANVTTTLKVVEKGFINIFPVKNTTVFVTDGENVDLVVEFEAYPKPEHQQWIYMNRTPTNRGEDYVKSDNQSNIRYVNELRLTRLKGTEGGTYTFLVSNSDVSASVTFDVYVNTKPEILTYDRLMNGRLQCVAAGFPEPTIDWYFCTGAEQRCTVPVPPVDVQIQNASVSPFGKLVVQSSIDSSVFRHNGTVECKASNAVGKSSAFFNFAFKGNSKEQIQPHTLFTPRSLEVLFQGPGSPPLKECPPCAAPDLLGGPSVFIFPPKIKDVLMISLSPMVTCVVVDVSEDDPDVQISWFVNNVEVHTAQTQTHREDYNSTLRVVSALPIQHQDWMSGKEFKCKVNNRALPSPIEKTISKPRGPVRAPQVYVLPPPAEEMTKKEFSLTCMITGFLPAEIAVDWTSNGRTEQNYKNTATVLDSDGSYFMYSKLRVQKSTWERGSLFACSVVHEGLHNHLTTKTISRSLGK

T2: Mouse cKIT ECD, C-terminal 6x His (Sino Biological Inc, catalog number 50530-M08H) (mouse, UniProt P05532 25-527)
T2 construct: extracellular domain; Bought protein
T2 sequence (looked up): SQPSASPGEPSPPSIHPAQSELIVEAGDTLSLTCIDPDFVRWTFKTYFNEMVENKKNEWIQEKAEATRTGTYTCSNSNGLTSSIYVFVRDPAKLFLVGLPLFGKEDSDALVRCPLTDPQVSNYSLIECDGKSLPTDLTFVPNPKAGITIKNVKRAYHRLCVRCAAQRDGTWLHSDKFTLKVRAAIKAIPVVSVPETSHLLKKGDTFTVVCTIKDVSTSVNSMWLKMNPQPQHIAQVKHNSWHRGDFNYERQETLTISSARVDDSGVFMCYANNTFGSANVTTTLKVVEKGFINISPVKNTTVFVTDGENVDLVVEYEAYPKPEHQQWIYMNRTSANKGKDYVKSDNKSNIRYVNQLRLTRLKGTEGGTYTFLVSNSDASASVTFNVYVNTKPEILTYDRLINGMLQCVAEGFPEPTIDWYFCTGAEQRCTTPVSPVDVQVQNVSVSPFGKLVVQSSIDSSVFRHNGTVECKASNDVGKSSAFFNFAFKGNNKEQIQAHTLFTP

T3: Cynomolgus monkey cKIT D1-5 (residues 25-520, C-terminal His tag) (cynomolgus monkey, UniProt P10721 25-520 (human entry))
T3 construct: the signal peptide was not part of the protein in the assay; also called cyno cKIT; cynomolgus monkey ECD
T3 chain: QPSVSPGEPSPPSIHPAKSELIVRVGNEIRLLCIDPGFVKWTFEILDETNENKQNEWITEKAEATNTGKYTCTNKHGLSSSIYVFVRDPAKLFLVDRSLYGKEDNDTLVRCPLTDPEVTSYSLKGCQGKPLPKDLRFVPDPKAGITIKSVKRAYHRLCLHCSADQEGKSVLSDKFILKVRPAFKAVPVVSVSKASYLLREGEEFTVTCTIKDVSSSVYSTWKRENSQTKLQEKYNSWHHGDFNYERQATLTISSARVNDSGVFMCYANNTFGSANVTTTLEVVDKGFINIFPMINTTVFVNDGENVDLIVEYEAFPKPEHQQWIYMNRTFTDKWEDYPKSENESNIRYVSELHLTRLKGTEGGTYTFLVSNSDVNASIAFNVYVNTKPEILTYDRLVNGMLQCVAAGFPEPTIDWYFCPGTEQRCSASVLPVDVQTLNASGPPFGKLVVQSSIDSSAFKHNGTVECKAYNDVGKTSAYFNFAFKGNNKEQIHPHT

B1: NEG087 (antibody, human IgG1, kappa, V domains shown)
VH: EVQLVESGGGLVQPGGSLRLSCAASGFTFSDYYMAWVRQAPGKGLEWVASINQNTGSTYYLDSVRGRFTISRDNAKNSLYLQMNSLRAEDTAVYYCARGDYYGTTYWYFDVWGQGTTVTVSS
VL: DIQMTQSPSSLSASVGDRVTITCRASQSISSYLNWYQQKPGKAPKLLIYYTSRLQSGVPSRFSGSGSGTDFTLTISSLQPEDFATYYCQQGRRLWSFGGGTKVEIKR
notes: Humanized, optimized variant of 9P3; human IgG1 kappa
B2: NEG027 (antibody, human IgG1, kappa, V domains shown)
VH: B1 VH
VL: EIVMTQSPATLSLSPGERATLSCRASQDISNYLNWYQQKPGQAPRLLIYYTSRLQSGIPARFSGSGSGTDYTLTISSLEPEDFAVYYCQQGKKLWSFGGGTKVEIKR
notes: as for B1

What was measured:
[1] = system: HAMLX5343 systemic primary AML xenograft
Experimental: Female NSG mice were implanted systemically (via tail vein injection) with 5×10^6 cells in phosphate buffered saline.
Leukemic burden was measured by flow cytometry. Weekly, blood was collected from all study animals via the tail. […] The stained cells were analyzed on a FACS Canto flow cytometer (BD Biosciences) (FIG. 52A). Body weights were measured twice weekly (FIG. 52B).

[2] = system: GIST882 cell line; test: Combination dose-matrix cell viability (CellTiter Glo, Loewe model); format: cell-based; settings: NEG085-MCC-DM1 in combination with the compound, 120 h
Experimental: (§1) Relative inhibition of cell viability was calculated for every dose combination. […] Excess inhibition compared to additivity can be plotted as a full dose-matrix chart to visualize the drug concentrations where synergies occur. Synergistic combinations produced regions of excess inhibition within the dose-matrix. […] “Additivity” was found when the combination generated the same inhibition of cell viability response when compared to the response with the single agent by itself “Synergy” was indicated when the inhibition of cell viability was greater than the response of the single agent compared with itself. Alternatively, “Additivity” was indicated with a Loewe score of less than 5, and “Synergy” was indicated by a Loewe score of greater than 5.
(§2) Cell viability was determined by measuring cellular ATP content using the CellTiter Glo luminescence assay (Promega, Madison Wis.). One day before drug addition, 250-500 GIST cells from 2 different cell lines were plated into 384-well plates (Greiner, Monroe, N.C.) in 20 μl growth media.

[3] = system: GIST430 cell line; test: as above; format: cell-based; settings: NEG085-MCC-DM1 in combination with the compound, 120 h
Experimental: as §1, §2

[4] = target: T1, Rat cKIT D1-5 (residues 25-526, …); test: SPR (Biacore 2000), antibody captured on anti-human Fc
[5] = target: T2, Mouse cKIT ECD, C-terminal 6x His (Sino …); test: as above
[6] = target: T3, Cynomolgus monkey cKIT D1-5 (residues …); test: SPR (Biacore 2000), antibody captured on anti-human Fc, cKIT ECD as analyte, 25 C, 1:1 fit
[7] = target: T4, Human cKIT D1-5 (human cKIT tr. variant 2, residues 26-520, C-terminal His tag) (human, UniProt P10721 26-524); test: as above
T4 construct: also called human cKIT ECD; Human c-Kit ECD
T4 sequence (P10721 other isoform, or with tags, fused parts or gaps mutant limits assumed): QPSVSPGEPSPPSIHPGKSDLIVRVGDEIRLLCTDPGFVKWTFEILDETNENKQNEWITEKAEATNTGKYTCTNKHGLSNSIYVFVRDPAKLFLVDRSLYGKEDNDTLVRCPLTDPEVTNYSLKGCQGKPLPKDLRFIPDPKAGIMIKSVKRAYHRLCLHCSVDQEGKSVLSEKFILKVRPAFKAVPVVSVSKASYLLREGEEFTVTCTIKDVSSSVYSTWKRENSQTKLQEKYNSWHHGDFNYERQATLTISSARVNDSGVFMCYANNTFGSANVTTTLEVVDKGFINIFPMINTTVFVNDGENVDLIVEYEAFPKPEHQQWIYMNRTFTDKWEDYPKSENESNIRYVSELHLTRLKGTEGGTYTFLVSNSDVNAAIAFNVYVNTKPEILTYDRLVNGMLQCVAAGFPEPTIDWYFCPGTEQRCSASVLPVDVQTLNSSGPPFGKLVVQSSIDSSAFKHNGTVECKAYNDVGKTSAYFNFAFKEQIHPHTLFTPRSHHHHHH

Row | Molecule | GIST882 cell line [2] | GIST430 cell line [3] | other results
1 | Nc1ccn([C@@H]2O[C@H](CO)[C@@H](O)[C@@H]2O)c(=O)n1 [ARA-C (cytarabine), cytarabine, reference compound] | – | – | Mean change of body weight (from day 67, % ± SEM) ([1]; Day 71, 50 mg/kg Daily × 6 days, intraperitoneally): 2.3 ± 2.3%; anti-tumor activity (leukemic burden) ([1]; NSG mice, intraperitoneally daily for 6 days): efficacious in three of the animals; bodyweight loss ([1]; intraperitoneally daily for 6 days, in three of six animals): > 20%; Mean change of tumor volume (% CD45 positive PBMC's ± SEM) ([1]; mouse, in vivo): −6.6 ± 2.1 % CD45 positive PBMC's; Regression (%) ([1]; mouse, in vivo): −52.5%
2 | CO[C@H]1C[C@@H]2CC[C@@H](C)[C@@](O)(O2)C(=O)C(=O)N2CCCC[C@H]2C(=O)O[C@H]([C@H](C)C[C@@H]2CC[C@@H](OCCO)[C@H](OC)C2)CC(=O)[C@H](C)/C=C(\C)[C@@H](O)[C@@H](OC)C(=O)[C@H](C)C[C@H](C)/C=C/C=C/C=C/1C [Afinitor ®, Everolimus] | Synergy (“Synergy” was indicated by a Loewe score of greater than 5) | Synergy (“Synergy” was indicated by a Loewe score of greater than 5) | –
3 | Cn1c(=O)n(-c2ccc(C(C)(C)C#N)cc2)c2c3cc(-c4cnc5ccccc5c4)ccc3ncc21 [NVP-BEZ235, 2-Methyl-2-[4-[3-methyl-2-oxo-8-(quinolin-3-yl)-2,3-dihydroimidazo[4,5-c]quinolin-1-yl]phenyl]propionitrile] | Synergy (“Synergy” was indicated by a Loewe score of greater than 5) | Additivity (“Additivity” was indicated with a Loewe score of less than 5) | –
4 | Nc1cc(C(F)(F)F)c(-c2cc(N3CCOCC3)nc(N3CCOCC3)n2)cn1 [NVP-BKM120, 4-(trifluoromethyl)-5-(2,6-dimorpholinopyrimidin-4-yl)pyridin-2-amine] | Synergy (“Synergy” was indicated by a Loewe score of greater than 5) | Additivity (“Additivity” was indicated with a Loewe score of less than 5) | –
5 | C[C@@H]1CN(c2ccc(Nc3ncc4ccn(-c5cc(F)c(CN6CCOCC6)c(F)c5)c4n3)cn2)C[C@H](C)N1 [NVP-BVB808] | Additivity (“Additivity” was indicated with a Loewe score of less than 5) | Additivity (“Additivity” was indicated with a Loewe score of less than 5) | –
6 | Cc1nc(NC(=O)N2CCC[C@H]2C(N)=O)sc1-c1ccnc(C(C)(C)C(F)(F)F)c1 [NVP-BYL719] | Synergy (“Synergy” was indicated by a Loewe score of greater than 5) | Synergy (“Synergy” was indicated by a Loewe score of greater than 5) | –
7 | COc1ccc(-c2ccc3c(N4CCOC[C@@H]4C)nc(N4CCOC[C@@H]4C)nc3n2)cc1CO [NVP-CCG168] | Additivity (“Additivity” was indicated with a Loewe score of less than 5) | Additivity (“Additivity” was indicated with a Loewe score of less than 5) | –
8 | COc1cccc(-c2cc(F)ccc2[C@H]2Cc3nc(N)nc(C)c3C(=O)N2)n1 [NVP-HSP990] | Additivity (“Additivity” was indicated with a Loewe score of less than 5) | Additivity (“Additivity” was indicated with a Loewe score of less than 5) | –
9 | CN[C@@H](C)C(=O)N[C@H](C(=O)N1CCC[C@H]1c1nc(C(=O)c2ccc(F)cc2)cs1)C1CCCCC1 [NVP-LCL161] | Synergy (“Synergy” was indicated by a Loewe score of greater than 5) | Synergy (“Synergy” was indicated by a Loewe score of greater than 5) | –
10 | CCN(CC)CCNC(=O)c1c(C)[nH]c(/C=C2\C(=O)Nc3ccc(F)cc32)c1C [Sutent ®, Sunitinib] | Additivity (“Additivity” was indicated with a Loewe score of less than 5) | Additivity (“Additivity” was indicated with a Loewe score of less than 5) | –
11 | B1 | – | – | binding result [4]: no binding (tested: 3.125-50 nM of cKIT ECD injected); binding result [5]: no binding (tested: 3.125-50 nM of cKIT ECD injected); Kd [6]: 1.39 nM; Kd [7]: 1.13 nM
12 | B2 | – | – | binding result [4]: no binding (tested: 3.125-50 nM of cKIT ECD injected); binding result [5]: no binding (tested: 3.125-50 nM of cKIT ECD injected); Kd [7]: 1.34 nM

From patent US20150320880A1, “ANTIBODY DRUG CONJUGATES” (NOVARTIS AG, priority 2013, published 2015)
